Non-standard residues stand in square brackets, D forms with d. Residues, ends and D or L forms follow the SMILES beside them. *: point of attachment. X5 = CCC(=O)OC1(C(=O)C(O)O*)CCC2C3CC(C)C4=CC(=O)C=CC4(C)C3C(O)CC21C; Phe(2-Me) = Cc1ccccc1C[CH](N)C(=O)O; Tle = CC(C)(C)[CH](N)C(=O)O; X3 = CC(C)(C)OC(=O)CCC(=O)*; Pentanoyl = CCCCC(=O)*; Boc = CC(C)(C)OC(=O)*; Bn = c1ccc(C*)cc1; OtBu = CC(C)(C)O*
SMILES | melting point [°C]
CCCCc1nn(-c2cc(NC(=O)c3ccccc3)ccc2C(F)(F)F)c(=O)n1Cc1ccc(-c2ccccc2S(=O)(=O)NC(=O)c2ccccc2Cl)cc1F | 210 to 212
FC(F)(F)c1ccc(-c2cc(-c3ccc(C(F)(F)F)cc3C(F)(F)F)c3ccc4c(-c5ccc(C(F)(F)F)cc5C(F)(F)F)cc(-c5ccc(C(F)(F)F)cc5C(F)(F)F)c5ccc2c3c54)c(C(F)(F)F)c1 | 290
CCCCCCCCCCCCc1cc(-c2c(Cl)c(Cl)c(-c3cc(CCCCCCCCCCCC)c(Br)s3)c3nsnc23)sc1Br | 60 to 61
Cc1cc(F)c(-n2nc(C(F)(F)F)nc2NC(=O)C(F)(F)F)cc1C(S(=O)C(c1cc(-n2nc(C(F)(F)F)nc2NC(=O)C(F)(F)F)c(F)cc1C)C(F)(F)F)C(F)(F)F (configuration not stated) | 233 to 237
C=CCN(CC=C)c1nc(NC(C)(C)CC(C)(C)C)nc(N(CCCCCCN(c2nc(NC(C)(C)CC(C)(C)C)nc(N(CC=C)CC=C)n2)C2CC(C)(C)NC(C)(C)C2)C2CC(C)(C)NC(C)(C)C2)n1 | 113 to 115
Cc1ccccc1-n1c(-c2cc(-c3ccncc3)c(N3CCOCC3)s2)nc2ccccc2c1=O | 208 to 210
CCCCCCCCCCCCCCCCCCOc1nc(OCCCCCCCCCCCCCCCCCC)nc(Oc2cc(-c3ccccc3)c(O)c(-c3ccccc3)c2)n1 | 33
CCC1(CC)c2cc(-c3nc4ccccc4s3)ccc2-c2ccc(C(CCCCCN)c3ccc4c(c3)C(CC)(CC)c3cc(-c5nc6ccccc6s5)ccc3-4)cc21 | 108 to 109
Cc1ccc(Br)cc1C | -0.2
N#Cc1ccc(C=Cc2ccc(OCc3ccc4ccccc4n3)cc2)cc1 | 116 to 118
COC(=O)C(C)(C)NC(=O)Nc1ccc(Cl)cc1 | 135 to 136
CCCCC(=O)NC(C)C(=O)NC(C)C(=O)N1CCCC1C(=O)NC(C(=O)OC(O)C(=O)C1(OC(=O)CC)CCC2C3CC(C)C4=CC(=O)C=CC4(C)C3C(O)CC21C)C(C)C (configuration not stated) (Pentanoyl-AAPV-X5; configuration not given here) | 142
CCn1cc(C(=O)N[C@@H]2C(=O)N[C@@H]2C(=O)OC)c(=O)c2ccc(C)nc21 (relative stereo) | 223 to 224
Cc1ccccc1CC(NC(=O)C(CCC(=O)OC(C)(C)C)NC(=O)C(CC(=O)OC(C)(C)C)NC(=O)CCC(=O)OC(C)(C)C)C(=O)NC(C(=O)NC(CC(C)C)C(=O)O)C(C)(C)C (X3-D(OtBu)E(OtBu)[Phe(2-Me)][Tle]L-OH; configuration not given here) | 235 to 236
CC(NC(=O)C(Cc1ccc(OCc2ccccc2)cc1)NC(=O)C(COCc1ccccc1)NC(=O)C(Cc1c[nH]c2ccccc12)NC(=O)OC(C)(C)C)C(N)=O (configuration not stated) (Boc-WS(Bn)Y(Bn)A-NH2; configuration not given here) | 180 to 185
CC(C)(C)c1cc(C(C)(C)C)c(OP2OP(Oc3c(C(C)(C)C)cc(C(C)(C)C)cc3C(C)(C)C)OP(Oc3c(C(C)(C)C)cc(C(C)(C)C)cc3C(C)(C)C)O2)c(C(C)(C)C)c1 (configuration not stated) | 226 to 244
CCc1nc(OC)c(NC(=O)N2CCN(c3cc(Cl)cc(Cl)c3)CC2)cc1C(=O)NC(C)C(=O)Nc1cc(CO)cc(Nc2c3ccccc3nc3ccccc23)c1 (configuration not stated) | 184 to 186
Brc1c(Br)c(Br)c(Oc2nc(Oc3c(Br)c(Br)c(Br)c(Br)c3Br)nc(Oc3c(Br)c(Br)c(Br)c(Br)c3Br)n2)c(Br)c1Br | 320 to 325
CCCCCCCCCCCCCCCCCCSCCOP(=O)(Cc1cc(C(C)(C)C)c(O)c(C)c1C)OCCSCCCCCCCCCCCCCCCCCC | 71 to 73

SMILES | melting point [°C]
COc1cc(OC)c(/C=C/C(c2ccc(OC)c(NC(=O)CC(=O)O)c2)S(=O)(=O)C(/C=C/c2c(OC)cc(OC)cc2OC)c2ccc(OC)c(NC(=O)CC(=O)O)c2)c(OC)c1 (configuration not stated) | 118 to 121
C[C@H](Cc1ccc(OCCCN2CCCCC2)c(OCCCN2CCCCC2)c1)[C@@H](C)Cc1ccc(OCCCN2CCCCC2)c(OCCCN2CCCCC2)c1 | 84 to 86
CCOC(=O)C1=C(COCC(O)C(O)COCC2=C(C(=O)OCC)C(c3ccccc3Cl)C(C(=O)OC)=C(C)N2)NC(C)=C(C(=O)OC)C1c1ccccc1Cl (configuration not stated) | 76.5 to 78
CCCCCCCCNc1nc(NCCCCC2CC(C)(C)N(OCC(C)(C)O)C(C)(C)C2)nc(NCCCCC2CC(C)(C)N(OCC(C)(C)O)C(C)(C)C2)n1 | 68 to 86
Cc1ccc(OCC(=O)O)c(C(=O)NCc2ccc(Br)cc2F)c1 | 145 to 146
CC(C)[C@H](NC(=O)N(C)Cc1nc2ccccc2[nH]1)C(=O)N[C@@H](Cc1ccccc1)[C@H](O)[C@H](O)[C@H](Cc1ccccc1)NC(=O)[C@@H](NC(=O)N(C)Cc1nc2ccccc2[nH]1)C(C)C | 107 to 109
CCCCCCCCCCOc1cc2c3c(c4cc(OCCCCCCCCCC)c(OCCCCCCCCCC)cc4c2cc1OCCCCCCCCCC)C(=O)C=CC3=O | 86 to 87
CCC1(CC)c2cc(-c3nc4ccccc4s3)ccc2-c2ccc(N(c3ccc4c(c3)C(CC)(CC)c3cc(-c5nc6ccccc6s5)ccc3-4)C3CCCCC3)cc21 | 262 to 264
COc1cc(OC)c(/C=C/C(c2ccc(OC)c(NC(=O)c3ccc(N)cc3)c2)S(=O)(=O)C(/C=C/c2c(OC)cc(OC)cc2OC)c2ccc(OC)c(NC(=O)c3ccc(N)cc3)c2)c(OC)c1 (configuration not stated) | 137 to 140
CCCCNC1=CCC(C)n2c1ncc(C(=O)O)c2=O (configuration not stated) | 135 to 137
O=[N+]([O-])c1ccc2cn[nH]c(=S)c2c1 | 233 to 234
CCCCCCCCCCCCCC=CC(OC(=O)c1ccccc1)C(COC1OC(CO)C(O)C(OCCCCC(C(=O)OC(C)(C)C)C(=O)OC(C)(C)C)C1O)NC(=O)CCCCCCCCCCCCCCC (configuration not stated) | 131 to 132
Cc1ccc(S(=O)(=O)N2CCOCCN(S(=O)(=O)c3ccc(C)cc3)CCN(S(=O)(=O)c3ccc(C)cc3)CCN(S(=O)(=O)c3ccc(C)cc3)CC2)cc1 | 198 to 201
COc1cc2c(cc1I)C(=O)CC2 | 129 to 130
COC(=O)C(CCNC(=O)c1ccccc1C(=O)O)Oc1c(Br)cc(-c2ccc(-c3c(Cc4ccccc4)sc4ccccc34)cc2)cc1Br (configuration not stated) | 95 to 97
CON=C(C(=O)NC1C(=O)N2C1CSC(c1ccc(Cl)cc1)C2(O)C(=O)OC(C)(C)C)c1csc(NC(c2ccccc2)(c2ccccc2)c2ccccc2)n1 (configuration not stated) | 191
CCCCN(c1nc(N(CCCC)C2CC(C)(C)N(OC3CCCCC3)C(C)(C)C2)nc(N(CCCC)C2CC(C)(C)N(OC3CCCCC3)C(C)(C)C2)n1)C1CC(C)(C)N(OC2CCCCC2)C(C)(C)C1 | 189 to 194
CCCCCCCCCCCCCC=CC(OC(=O)c1ccccc1)C(COC1OC(COCCC(C(=O)OC(C)(C)C)C(=O)OC(C)(C)C)C(O)C(O)C1O)NC(=O)CCCCCCCCCCCCCCC (configuration not stated) | 47.5 to 48.5
CC(C)(C)c1cc(Cc2cc(C(C)(C)C)cc(-n3nc4ccc(S(=O)(=O)c5ccccc5)cc4n3)c2O)c(O)c(-n2nc3ccc(S(=O)(=O)c4ccccc4)cc3n2)c1 | 224 to 234

SMILES | melting point [°C]
O=C(Nc1ccc(Br)cc1)OC1CCCNC1 (configuration not stated) | 169 to 170
CNC(=O)OC(COc1ccc(C(C)(C)c2ccc(OCC(CN3C(=O)NC4(CC(C)(C)NC(C)(C)C4)C3=O)OC(=O)NC)cc2)cc1)CN1C(=O)NC2(CC(C)(C)NC(C)(C)C2)C1=O (configuration not stated) | 238 to 242
CC(C)C(NC(=O)N(C)Cc1ccccn1)C(=O)NC(Cc1ccccc1)C(O)C(O)C(Cc1ccccc1)NC(=O)C(NC(=O)N(C)Cc1nccs1)C(C)C (configuration not stated) | 96 to 97
O=C(O)CCOC1COCCCC=CC2CC2(C(=O)NS(=O)(=O)C2CC2)NC(=O)C2(NC(=O)Nc3ccccc3)CC(OC(=O)N(CCC(=O)O)c3ccccc3)CN2C1=O (configuration not stated) | 142 to 144
O=S(=O)(C(/C=C/c1ccc(Br)cc1)c1ccc(I)cc1)C(/C=C/c1ccc(Br)cc1)c1ccc(I)cc1 (configuration not stated) | 217 to 219
Nc1n[nH]cc1C(=O)O | 135
C=CCN(CC=C)c1nc(OC)nc(N(CCCCCCN(c2nc(OC)nc(N(CC=C)CC=C)n2)C2CC(C)(C)NC(C)(C)C2)C2CC(C)(C)NC(C)(C)C2)n1 | 113 to 115
Cc1ccn2c(-c3ccnc(-c4ccc(OCc5cn(C)cn5)cc4)c3)c(-c3cccc(C)n3)nc2c1 | 217
COc1cc(C2c3cc4c(cc3C(NC(=O)CNCCCCN(CCCNC(=O)OCc3ccccc3)C(=O)OCc3ccccc3)C3COC(=O)C23)OCO4)cc(OC)c1O (configuration not stated) | 199
COC(=O)C(CCN1C(=O)c2ccccc2C1=O)Oc1c(Br)cc(-c2c3ccccc3c(Br)c3sc4ccccc4c23)cc1Br (configuration not stated) | 221 to 222
[C-]#[N+]C(C)C(=O)NCC1CC2CC(C1C)C2(C)C (configuration not stated) | 58 to 59
CCCCCCCCCCCCCC(=O)NC1C(OCC(=O)O)OC(COC2OC(CO)C(OP(=O)(O)O)C(OC(=O)CNC(=O)CCCCCCCCCCC)C2NC(=O)CCCCCCCCCCCCC)C(O)C1OC(=O)CCCCCCCCCCCCC (configuration not stated) | 150 to 155
COC(=O)c1ccc([C@H](C)NC(=O)CN2CCN(CC(=O)N[C@@H](C)c3ccccc3)CCN(Cc3ccn(-c4ccc5c(=O)c6cc(C(C)(C)C)ccc6oc5n4)n3)CCN(CC(=O)N[C@@H](C)c3ccccc3)CC2)cc1 | 187 to 189
CCCCCCCCCCCCN(CCCCCCCCCCCC)c1ccc2c(c1)O/C(=C1\Oc3cc(N(CCCCCCCCCCCC)CCCCCCCCCCCC)ccc3C1=O)C2=O | 105
Cc1ccc(S(=O)(=O)N2CCN(C)CCN(S(=O)(=O)c3ccc(C)cc3)CCN(S(=O)(=O)c3ccc(C)cc3)CCN(S(=O)(=O)c3ccc(C)cc3)CC2)cc1 | 170 to 171
CCN1CCN(c2ccc(-c3ccnc(Nc4cc(OC)c(OC)c(OC)c4)n3)cn2)CC1 | 139
CCCCc1nc2c(N)nc3ccccc3c2n1CCCCNC(=O)Nc1ccc(Oc2ccc(NC(=O)NCCCCn3c(CCCC)nc4c(N)nc5ccccc5c43)cc2)cc1 | 152 to 156
CCc1nc(OC)c(NC(=O)N2CCN(c3cc(C)cc(C)c3)CC2)cc1C(=O)NC(C)C(=O)Nc1cc(CO)cc(Nc2c3ccccc3nc3c(C)c(C)ccc23)c1 (configuration not stated) | 176 to 178
CC(C)(C)c1cc(Cc2cc(C(C)(C)C)cc(C(C)(C)C)c2Op2oc3c(C(C)(C)C)cc(C(C)(C)C)cc3c3cc(C(C)(C)C)cc(C(C)(C)C)c3o2)c(O)c(C(C)(C)C)c1 | 195 to 205

— a melting point compilation (Tetko et al.)
